The source made the active and inactive calls. The calls are words filed in the database; no cut-off is given here.
Key:
Bacillus subtilis = test: Antibacterial activity against Bacillus subtilis ATCC 6633 at 10 ug/disk; assay type: functional, organism-based
Escherichia coli = test: Genotoxicity against Escherichia coli PQ37 at 50 ug/disk; assay type: toxicity, organism-based
Staphylococcus aureus = test: Antibacterial activity against Staphylococcus aureus ATCC 29213; assay type: functional, organism-based
Pseudomonas aeruginosa = test: Antibacterial activity against Pseudomonas aeruginosa ATCC 27853; assay type: functional, organism-based
Candida albicans = test: Antifungal activity against Candida albicans ATCC 32354; assay type: functional, organism-based

## C/C(C=O)=C1\C(=O)C[C@]1(C)[C@H]1CC(C)(C)CC1=O
Bacillus subtilis
  Activity: inactive
Escherichia coli
  Activity: Not Active
Staphylococcus aureus
  Activity: inactive
Pseudomonas aeruginosa
  Activity: inactive
Candida albicans
  Activity: inactive

## C/C(CO)=C1\[C@@H](O)C[C@]1(C)[C@H]1CC(C)(C)C[C@@H]1O
Bacillus subtilis
  Activity: inactive
Escherichia coli
  Activity: Not Active
Staphylococcus aureus
  Activity: inactive
Pseudomonas aeruginosa
  Activity: inactive
Candida albicans
  Activity: inactive

## CC1(C)C[C@H]2[C@@H](CC[C@@]2(C)O)[C@]2(C)CC2[C@H]1OC(=O)c1cc([N+](=O)[O-])cc([N+](=O)[O-])c1 (stereo not given in full)
Bacillus subtilis
  Activity: inactive
Escherichia coli
  Activity: Not Active
Staphylococcus aureus
  Activity: inactive
Pseudomonas aeruginosa
  Activity: inactive
Candida albicans
  Activity: inactive

## C/C(C=O)=C1\[C@@H](O)C[C@]1(C)[C@H]1CC(C)(C)C[C@@H]1O [ILLUDOSIN]
Bacillus subtilis
  Activity: Active
Escherichia coli
  Activity: Active
Staphylococcus aureus
  Activity: inactive
Pseudomonas aeruginosa
  Activity: inactive
Candida albicans
  Activity: inactive

— ChEMBL document CHEMBL1155632, “Sesquiterpenes from the basidiomycete Omphalotus illudens” (J Nat Prod, 2000)
